Molecular target: T1, BTK (Homo sapiens, UniProt Q06187)
T1 construct: purchased Upstate 14-552
Assay: In vitro BTK kinase assay: BTK-POLYGAT-LS ASSAY
Format: biochemical
Details: ATP 10 uM
In short: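 BTK phosphorylation of polyGAT (100 nM final) with ATP at 10 μM final, 10 mM Tris-HCl pH 7.5 kinase buffer, quenched by EDTA after 30 min. Potency given as IC50.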

T1 sequence (Q06187 whole entry): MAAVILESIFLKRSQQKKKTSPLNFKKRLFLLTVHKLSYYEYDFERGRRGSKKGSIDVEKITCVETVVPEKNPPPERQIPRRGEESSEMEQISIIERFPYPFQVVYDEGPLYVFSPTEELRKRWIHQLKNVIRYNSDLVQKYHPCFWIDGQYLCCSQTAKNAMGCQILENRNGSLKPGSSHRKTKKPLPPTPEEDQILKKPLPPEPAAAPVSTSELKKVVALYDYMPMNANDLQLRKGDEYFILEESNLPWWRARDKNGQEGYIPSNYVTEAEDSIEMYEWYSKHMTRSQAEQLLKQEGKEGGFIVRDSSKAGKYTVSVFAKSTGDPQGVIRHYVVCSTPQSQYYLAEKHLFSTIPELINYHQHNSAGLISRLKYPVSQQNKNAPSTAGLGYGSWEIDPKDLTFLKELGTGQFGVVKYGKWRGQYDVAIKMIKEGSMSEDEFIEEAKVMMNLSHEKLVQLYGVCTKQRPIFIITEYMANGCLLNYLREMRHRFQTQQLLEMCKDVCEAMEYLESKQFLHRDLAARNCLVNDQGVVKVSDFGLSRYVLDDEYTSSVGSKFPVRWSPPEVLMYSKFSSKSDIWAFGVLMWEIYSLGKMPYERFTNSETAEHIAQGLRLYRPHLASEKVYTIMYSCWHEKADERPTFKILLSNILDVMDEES

SMILES	IC50
COc1ccccc1NCC(=O)NC1CCCN(c2ncnc3[nH]ccc23)C1 (stereo not shown) [Example 37, (N-(1-(7H-pyrrolo[2,3-d]pyrimidin-4-yl)piperidin-3-yl)-2-(2-methoxyphenylamino)acetamide)]	100 to 999 nM
CC(C)(C)c1cccc(NCC(=O)NC2CCCN(c3ncnc4[nH]ccc34)C2)c1 (stereo not shown) [Example 18, (N-(1-(7H-pyrrolo[2,3-d]pyrimidin-4-yl)piperidin-3-yl)-2-(3-ten-butylphenylamino)acetamide)]	100 to 999 nM
O=C(CNc1cccc(N2CCCC2)c1)N[C@@H]1CCCN(c2ncnc3[nH]ccc23)C1 [Example 301]	100 to 999 nM
O=C(CNc1ccccc1S(=O)(=O)N1CCCC1)N[C@@H]1CCCN(c2ncnc3[nH]ncc23)C1 [Example 205]	< 100 nM
COc1cccc(NCC(=O)NC2CCCN(c3nccc4[nH]ccc34)C2)c1OC (stereo not shown) [Example 340]	> 10000 nM
O=C(NC1CN(c2ncnc3[nH]ncc23)CCC1c1ccccc1)[C@H](Nc1cc(F)cc(Cl)c1)C1CC1 (stereo partly drawn) [Example 149, (R)-2-(3-chloro-5-fluorophenylamino)-2-cyclopropyl-N-(4-phenyl-1-(1H-pyrazolo[3,4-d]pyrimidin-4-yl)piperidin-3-yl)acetamide]	< 100 nM
O=C(CNc1cc(C(F)(F)F)cc(C(F)(F)F)c1)N[C@@H]1CCCN(c2ncnc3[nH]ccc23)C1 [Example 308]	100 to 999 nM
CC(C)c1ccccc1NCC(=O)N[C@@H]1CCCN(c2ncnc3[nH]ncc23)C1 [Example 219]	< 100 nM
O=C(CNc1cccc2ncccc12)NC1CCCN(c2ncnc3[nH]ccc23)C1 (stereo not shown) [Example 332]	> 10000 nM
CN(C)S(=O)(=O)c1ccccc1NCC(=O)N[C@@H]1CCCN(c2ncnc3[nH]ncc23)C1 [Example 375]	100 to 999 nM
CC(C)[C@@H](Nc1cccc(Cl)c1)C(=O)N[C@@H]1CCCN(c2ncnc3[nH]ccc23)C1 [Example 112, (R)—N—((R)-1-(7H-pyrrolo[2,3-d]pyrimidin-4-yl)piperidin-3-yl)-2-(3-chlorophenylamino)-3-methylbutanamide]	< 100 nM
CC(C)CCOc1cccc(NCC(=O)N[C@@H]2CCCN(c3ncnc4[nH]ccc34)C2)c1 [Example 283]	< 100 nM
O=C(CNc1cccnc1)NC1CCCN(c2ncnc3[nH]ccc23)C1 (stereo not shown) [Example 59, (N-(1-(7H-pyrrolo[2,3-d]pyrimidin-4-yl)piperidin-3-yl)-2-(pyridin-3-ylamino)acetamide)]	> 10000 nM
O=C(CNc1ccccc1-n1cccn1)N[C@@H]1CCCN(c2ncnc3[nH]ccc23)C1 [Example 381]	1000 to 10000 nM
O=C(CNc1cccc(N2CCCCC2)c1)N[C@@H]1CCCN(c2ncnc3[nH]ccc23)C1 [Example 429]	1000 to 10000 nM
CN(C)S(=O)(=O)c1ccc(F)cc1NCC(=O)N[C@@H]1CCCN(c2ncnc3[nH]ccc23)C1 [Example 246]	100 to 999 nM
CC[C@@H](Nc1cc(F)cc(Cl)c1)C(=O)N[C@H]1CN(c2ncnc3[nH]ncc23)CC[C@@H]1C [Example 154]	< 100 nM
COc1cccc(NCC(=O)NC2CCCN(c3ncnc4[nH]ccc34)C2)c1 (stereo not shown) [Example 32, (N-(1-(7H-pyrrolo[2,3-d]pyrimidin-4-yl)piperidin-3-yl)-2-(3-methoxyphenylamino)acetamide)]	100 to 999 nM
CC(C)(C)c1ccccc1NCC(=O)NC1CCCN(c2ncnc3[nH]ccc23)C1 (stereo not shown) [Example 17, (N-(1-(7H-pyrrolo[2,3-d]pyrimidin-4-yl)piperidin-3-yl)-2-(2-tert-butylphenylamino)acetamide)]	1000 to 10000 nM
Nc1cc(N2CCC[C@@H](NC(=O)[C@H](Nc3cc(F)cc(Cl)c3)C3CC3)C2)ncn1 [Example 314]	100 to 999 nM

SMILES	IC50
COCCOc1ccc(C(F)(F)F)cc1NCC(=O)N[C@@H]1CCCN(c2ncnc3[nH]ccc23)C1 [Example 455]	100 to 999 nM
Cc1ccccc1NCC(=O)N[C@@H]1CCCN(c2ncnc3[nH]ccc23)C1 [Example 268]	100 to 999 nM
O=C(N[C@@H]1CCCN(c2ncnc3[nH]ccc23)C1)C(Nc1cc(F)cc(Cl)c1)C1COC1 (stereo partly shown) [Example 387]	1000 to 10000 nM
O=C(CNc1cccc(-c2nnco2)c1)N[C@@H]1CCCN(c2ncnc3[nH]ccc23)C1 [Example 390]	1000 to 10000 nM
CCc1cccc(CC)c1NCC(=O)NC1CCCN(c2ncnc3[nH]ccc23)C1 (stereo not shown) [Example 30, (N-(1-(7H-pyrrolo[2,3-d]pyrimidin-4-yl)piperidin-3-yl)-2-(2,6-diethylphenylamino)acetamide)]	1000 to 10000 nM
C[C@@H](O)[C@@H](Nc1cc(F)cc(Cl)c1)C(=O)N[C@H]1CN(c2ncnc3[nH]ncc23)CC[C@@H]1C [Example 226]	< 100 nM
Cn1nc(-c2ccccc2)cc1NCC(=O)NC1CCCN(c2ncnc3[nH]ccc23)C1 (stereo not shown) [Example 351]	> 10000 nM
O=C(CNC(c1ccccc1)c1ccccc1)N[C@@H]1CCCN(c2ncnc3[nH]ccc23)C1 [Example 460]	1000 to 10000 nM
O=C(N[C@@H]1CCCN(c2ncnc3[nH]ccc23)C1)[C@H]1CCc2ccccc2N1 [Example 14, (R)—N—((R)-1-(7H-pyrrolo[2,3-d]pyrimidin-4-yl)piperidin-3-yl)-1,2,3,4-tetrahydroquinoline-2-carboxamide]	1000 to 10000 nM
O=C(CNc1ccc(F)c(C(F)(F)F)c1)NC1CCCN(c2ncnc3[nH]ccc23)C1 (stereo not shown) [Example 74, (N-(1-(7H-pyrrolo[2,3-d]pyrimidin-4-yl)piperidin-3-yl)-2-(4-fluoro-3-(trifluoromethyl)phenylamino)acetamide)]	1000 to 10000 nM
O=C(CNc1ccccc1)N[C@@H]1CCN(c2ncnc3[nH]ccc23)C1 [Example 360]	> 10000 nM
O=C([C@H](Nc1cc(F)cc(Cl)c1)C1CC1)N1CCCCC12CCCN(c1ncnc3[nH]ncc13)C2 (stereo partly shown) [Example 373]	1000 to 10000 nM
Cc1ccc(NCC(=O)N[C@@H]2CCCN(c3ncnc4[nH]ccc34)C2)cc1C [Example 258]	100 to 999 nM
O=C(CNc1ccn(-c2ccccc2)n1)NC1CCCN(c2ncnc3[nH]ccc23)C1 (stereo not shown) [Example 79, (N-(1-(7H-pyrrolo[2,3-d]pyrimidin-4-yl)piperidin-3-yl)-2-(1-phenyl-1H-pyrazol-3-ylamino)acetamide)]	> 10000 nM
CC1CCCCN1S(=O)(=O)c1ccccc1NCC(=O)N[C@@H]1CCCN(c2ncnc3[nH]ncc23)C1 (stereo partly shown) [Example 214]	< 100 nM
O=C(CNc1cc(C(F)(F)F)ccc1F)NC1CCCN(c2ncnc3[nH]ccc23)C1 (stereo not shown) [Example 69, (N-(1-(7H-pyrrolo[2,3-d]pyrimidin-4-yl)piperidin-3-yl)-2-(2-fluoro-5-(trifluoromethyl)phenylamino)acetamide)]	1000 to 10000 nM
O=C(CNc1cccc(CO)c1)N[C@@H]1CCCN(c2ncnc3[nH]ccc23)C1 [Example 394]	1000 to 10000 nM
O=C(N[C@@H]1CCCN(c2ncnc3[nH]ccc23)C1)[C@H](Nc1ccccc1)C1CC1 [Example 107, (R)—N—((R)-1-(7H-pyrrolo[2,3-d]pyrimidin-4-yl)piperidin-3-yl)-2-cyclopropyl-2-(phenylamino)acetamide]	< 100 nM
CC[C@@H](C)[C@@H](Nc1ccccc1)C(=O)N[C@@H]1CCCN(c2ncnc3[nH]ccc23)C1 [Example 117, (2R,3R)—N—((R)-1-(7H-pyrrolo[2,3-d]pyrimidin-4-yl)piperidin-3-yl)-3-methyl-2-(phenylamino)pentanamide]	100 to 999 nM
Cc1cc(NCC(=O)NC2CCCN(c3ncnc4[nH]ccc34)C2)n(C(C)(C)C)n1 (stereo not shown) [Example 58, (N-(1-(7H-pyrrolo[2,3-d]pyrimidin-4-yl)piperidin-3-yl)-2-(1-tert-butyl-3-methyl-1H-pyrazol-5-ylamino)acetamide)]	> 10000 nM

SMILES	IC50
O=C(N[C@@H]1CCCN(c2ncnc3[nH]cc(F)c23)C1)[C@H](Nc1cc(Cl)cc(Cl)c1)C1CC1 [Example 392]	1000 to 10000 nM
N#Cc1ccc(NCC(=O)N[C@@H]2CCCN(c3ncnc4[nH]ccc34)C2)cc1 [Example 412]	1000 to 10000 nM
CCCc1ccccc1NCC(=O)N[C@@H]1CCCN(c2ncnc3[nH]ccc23)C1 [Example 259]	< 100 nM
O=C(CNc1ccccc1S(=O)(=O)c1cccc(C(F)(F)F)c1)N[C@@H]1CCCN(c2ncnc3[nH]ncc23)C1 [Example 187]	< 100 nM
O=C(CNc1ccccc1OC1CCCCC1)N[C@@H]1CCCN(c2ncnc3[nH]ccc23)C1 [Example 266]	< 100 nM
CC(C)[C@@H](Nc1cc(F)cc(Cl)c1)C(=O)N[C@@H]1CCCN(c2ncnc3[nH]ccc23)C1 [Example 209]	< 100 nM
O=C(CNc1ccccc1C(=O)N1CCCCC1)N[C@@H]1CCCN(c2ncnc3[nH]ccc23)C1 [Example 253]	100 to 999 nM
O=C(CNc1ccc(F)c(F)c1)NC1CCCN(c2ncnc3[nH]ccc23)C1 (stereo not shown) [Example 62, (N-(1-(7H-pyrrolo[2,3-d]pyrimidin-4-yl)piperidin-3-yl)-2-(3,4-difluorophenylamino)acetamide)]	100 to 999 nM
O=C(CNc1cccc(Cl)c1Cl)NC1CCCN(c2ncnc3[nH]ccc23)C1 (stereo not shown) [Example 27, (N-(1-(7H-pyrrolo[2,3-d]pyrimidin-4-yl)piperidin-3-yl)-2-(2,3-dichlorophenylamino)acetamide)]	100 to 999 nM
CC(C)CN(CC(C)C)S(=O)(=O)c1ccccc1NCC(=O)N[C@@H]1CCCN(c2ncnc3[nH]ncc23)C1 [Example 186]	< 100 nM
O=C(NC1CCCN(c2ncnc3[nH]ccc23)C1)c1cc2ccccc2[nH]1 (stereo not shown) [Example 362]	1000 to 10000 nM
CCc1cccc(NCC(=O)N[C@@H]2CCCN(c3ncnc4[nH]ccc34)C2)c1 [Example 262]	< 100 nM
O=C(CNc1ccccc1OCCc1ccccc1)N[C@@H]1CCCN(c2ncnc3[nH]ccc23)C1 [Example 221]	< 100 nM
Cc1cc(NCC(=O)N[C@@H]2CCCN(c3ncnc4[nH]ccc34)C2)cc(OC(F)(F)F)c1 [Example 382]	< 100 nM
O=C(CNc1ccccc1F)N[C@@H]1CCCN(c2ncnc3[nH]ccc23)C1 [Example 318]	100 to 999 nM
CCC[C@@H](Nc1cc(F)cc(Cl)c1)C(=O)N[C@@H]1CCCN(c2ncnc3[nH]ncc23)C1 [Example 168]	< 100 nM
O=C(CNC1CCCN(c2ncnc3[nH]ccc23)C1)Nc1ccccc1 (stereo not shown) [Example 363]	> 10000 nM
O=C(CNc1ccc2[nH]ncc2c1)N[C@@H]1CCCN(c2ncnc3[nH]ccc23)C1 [Example 406]	1000 to 10000 nM
